Source: patent publication US12344610B2, “APOL1 inhibitors and methods of use” (Maze Therapeutics, Inc., priority 2022, dated 2025)

How the values were obtained:
[1] = test system: HEK293 cells overexpressing APOL1 G2; assay: APOL1 G2 HEK293 cell rescue assay (reversal of cell death caused by overexpression of APOL1); format: cell-based; conditions: geometric mean of at least 2 assay runs, † = single assay run
In short: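 EC50 is the half-maximal effective concentration for reversing cell death driven by APOL1 G2 overexpression in HEK293 cells. Reported as geometric mean of at least 2 runs on separate days, each run averaging duplicate wells per plate; some values from a single run.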

APOL1 G2 = molecular target: T1, APOL1 G2 (Homo sapiens, UniProt O14791, DEL388-389); assay: APOL1-mediated calcium transport (calcium influx) assay, HEK T-REx/GCaMP6f/APOL1 G2 K6.3 cells, FLIPR TETRA; format: cell-based; conditions: prevention of calcium influx; geometric mean of at least 2 assay runs; † = average of a technical replicate from a single assay run
T1 construct: expressed in transfected cells; host or cells: HEK293 T-REx clonal line stably expressing GCaMP6f (HEK T-REx/GCaMP6f/APOL1 G2 K6.3), doxycycline induced
T1 sequence (O14791 with tags, fused parts or gaps DEL388-389): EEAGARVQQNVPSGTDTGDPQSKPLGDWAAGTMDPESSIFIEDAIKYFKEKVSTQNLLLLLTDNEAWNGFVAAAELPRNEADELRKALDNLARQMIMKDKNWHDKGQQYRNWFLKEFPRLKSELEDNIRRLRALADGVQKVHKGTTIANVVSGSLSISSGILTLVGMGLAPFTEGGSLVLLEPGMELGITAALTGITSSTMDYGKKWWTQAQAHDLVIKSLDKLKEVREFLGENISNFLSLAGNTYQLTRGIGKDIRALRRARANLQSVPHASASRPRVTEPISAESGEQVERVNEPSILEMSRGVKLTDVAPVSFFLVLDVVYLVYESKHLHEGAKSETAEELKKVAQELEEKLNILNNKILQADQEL
In short: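 A HEK293 T-REx clone stably expressing GCaMP6f had APOL1 G2 induced with doxycycline (20 ng/mL solution added) for 6 h. Cells were then washed into Ca2+-free Tyrode's buffer (pH 7.4) and preincubated with compounds (duplicate 8-point) for 10 min at room temperature. Ca2+ injection to 5 mM final produced FLIPR GCaMP fluorescence, giving AC50 for influx inhibition (geometric mean, ≥2 runs).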

[2] = Homo sapiens, HEK293, HEK293 overexpressing APOL1 G2

SMILES: CS(=O)(=O)c1ccc(OCCN2CCC3(CC2)C(=O)Nc2ccc(Cl)cc23)cc1C(F)(F)F [Compound 108, 5-chloro-1′-{2-[4-methanesulfonyl-3-(trifluoromethyl)phenoxy]ethyl}-1,2-dihydrospiro[indole-3,4′-piperidin]-2-one]
- EC50 [1, 2]: 16.9 nM
- AC50 (APOL1 G2): 860 nM

SMILES: CN=S(C)(=O)c1ccc(OCCN2CCC3(CC2)C(=O)Nc2ccc(C#N)cc23)cc1 (stereo not drawn) [Compound 150, 1′-(2-{4-[methyl(methylimino)oxo-λ^6-sulfanyl]phenoxy}ethyl)-2-oxo-1,2-dihydrospiro[indole-3,4′-piperidine]-5-carbonitrile]
- EC50 [1, 2]: 228 nM
- AC50 (APOL1 G2): 629 nM

SMILES: O=C1CCc2cc(OCCN3CCC4(CC3)C(=O)Nc3ccc(Cl)cc34)ccc2N1CCO [Compound 162, 5-chloro-1′-(2-{[1-(2-hydroxyethyl)-2-oxo-1,2,3,4-tetrahydroquinolin-6-yl]oxy}ethyl)-1,2-dihydrospiro[indole-3,4′-piperidin]-2-one]
- EC50 [1, 2]: 57.1 nM
- AC50 (APOL1 G2): 603 nM

SMILES: Cc1cc(OCCN2CCC3(CC2)C(=O)Nc2ccc(C#N)cc23)ccc1S(C)(=O)=O [Compound 111, 1′-[2-(4-methanesulfonyl-3-methylphenoxy)ethyl]-2-oxo-1,2-dihydrospiro[indole-3,4′-piperidine]-5-carbonitrile]
- EC50 [1, 2]: 142 nM
- AC50 (APOL1 G2): 919 nM

SMILES: CN(c1c(F)cc(OCCN2CCC3(CC2)C(=O)Nc2ccc(Cl)cc23)cc1F)S(C)(=O)=O [Compound 127, N-[4-(2-{5-chloro-2-oxo-1,2-dihydrospiro[indole-3,4′-piperidin]-1′-yl}ethoxy)-2,6-difluorophenyl]-N-methylmethanesulfonamide]
- EC50 [1, 2]: 20.8 nM
- AC50 (APOL1 G2): 542 nM

SMILES: CN=S(C)(=O)c1ccc(OCCN2CCC3(CC2)C(=O)Nc2ccc(Cl)cc23)cc1 (single isomer, unassigned) [Compound 148, (S) or (R)-5-chloro-1′-(2-{4-[methyl(methylimino)oxo-λ^6-sulfanyl]phenoxy}ethyl)-1,2-dihydrospiro[indole-3,4′-piperidin]-2-one]
- EC50 [1, 2]: 107 nM
- AC50 (APOL1 G2): 960 nM

SMILES: O=C1CCC2c3ccc(OCCN4CCC5(CC4)C(=O)Nc4ccc(Cl)cc45)cc3CCN12 (single isomer, unassigned) [Compound 122, (S) or (R)-5-chloro-1′-[2-({3-oxo-1H,2H,3H,5H,6H,10bH-pyrrolo[2,1-a]isoquinolin-8-yl}oxy)ethyl]-1,2-dihydrospiro[indole-3,4′-piperidin]-2-one]
- EC50 [1, 2]: 87.5 nM
- AC50 (APOL1 G2): 616 nM

SMILES: O=C1Nc2ccc(Cl)cc2C12CCN(CCOc1ccc(C3CCCS3(=O)=O)cc1)CC2 (single isomer, unassigned) [Compound 177, (R) or (S)-2-[4-(2-{5-chloro-2-oxo-1,2-dihydrospiro[indole-3,4′-piperidin]-1′-yl}ethoxy)phenyl]-1λ^6-thiolane-1,1-dione]
- EC50 ([1]; HEK293 overexpressing APOL1 G2): 78.2 nM
- AC50 (APOL1 G2): 670 nM

SMILES: CS(=O)(=O)c1ccc(OCCN2CCC3(CC2)C(=O)Nc2ccc(C#N)cc23)cc1Cl [Compound 156, 1′-[2-(3-chloro-4-methanesulfonylphenoxy)ethyl]-2-oxo-1,2-dihydrospiro[indole-3,4′-piperidine]-5-carbonitrile]
- EC50 [1, 2]: 55.9 nM
- AC50 (APOL1 G2): 468 nM

SMILES: N#Cc1ccc2c(c1)C1(CCN(CCOc3ccc4c(c3)CCNS4(=O)=O)CC1)C(=O)N2 [Compound 168, 1′-{2-[(1,1-dioxo-3,4-dihydro-2H-1λ^6,2-benzothiazin-6-yl)oxy]ethyl}-2-oxo-1,2-dihydrospiro[indole-3,4′-piperidine]-5-carbonitrile]
- EC50 [1, 2]: 343 nM
- AC50 (APOL1 G2): 1390 nM

SMILES: N#Cc1ccc2c(c1)C1(CCN(CCOc3ccc4c(c3)CCC(=O)N4CC(F)F)CC1)C(=O)N2 [Compound 105, 1′-(2-{[1-(2,2-difluoroethyl)-2-oxo-1,2,3,4-tetrahydroquinolin-6-yl]oxy}ethyl)-2-oxo-1,2-dihydrospiro[indole-3,4′-piperidine]-5-carbonitrile]
- EC50 [1, 2]: 40.7 nM
- AC50 (APOL1 G2): 392 nM

SMILES: CS(=O)(=O)C1(c2c(F)cc(OCCN3CCC4(CC3)C(=O)Nc3ccc(Cl)cc34)cc2F)COC1 [Compound 136, 5-chloro-1′-{2-[3,5-difluoro-4-(3-methanesulfonyloxetan-3-yl)phenoxy]ethyl}-1,2-dihydrospiro[indole-3,4′-piperidin]-2-one]
- EC50 [1, 2]: 22.4 nM
- AC50 (APOL1 G2): 800 nM

SMILES: CN(c1c(F)cc(OCCN2CCC3(CC2)C(=O)Nc2ccc(C#N)cc23)cc1F)S(C)(=O)=O [Compound 128, N-[4-(2-{5-cyano-2-oxo-1,2-dihydrospiro[indole-3,4′-piperidin]-1′-yl}ethoxy)-2,6-difluorophenyl]-N-methylmethanesulfonamide]
- EC50 [1, 2]: 42.7 nM
- AC50 (APOL1 G2): 537 nM

SMILES: N#Cc1ccc2c(c1)C1(CCN(CCOc3ccc4c(c3)CCN3C(=O)NCC43)CC1)C(=O)N2 (single isomer, unassigned) [Compound 120, (R) or (S)-2-oxo-1′-[2-({3-oxo-1H,2H,3H,5H,6H,10bH-imidazo[4,3-a]isoquinolin-8-yl}oxy)ethyl]-1,2-dihydrospiro[indole-3,4′-piperidine]-5-carbonitrile]
- EC50 ([1]; HEK293 overexpressing APOL1 G2): 324 nM
- AC50 (APOL1 G2): 1190 nM

SMILES: O=C1Nc2ccc(Cl)cc2C12CCN(CCOc1ccc(C3CCCS3(=O)=O)cc1)CC2 (single isomer, unassigned) [Compound 176, (S) or (R)-2-[4-(2-{5-chloro-2-oxo-1,2-dihydrospiro[indole-3,4′-piperidin]-1′-yl}ethoxy)phenyl]-1λ^6-thiolane-1,1-dione]
- EC50 [1, 2]: 46.9 nM
- AC50 (APOL1 G2): 547 nM

SMILES: CN1Cc2cc(OCCN3CCC4(CC3)C(=O)Nc3ccc(Cl)cc34)ccc2C1=O [Compound 146, 5-chloro-1′-{2-[(2-methyl-1-oxo-2,3-dihydro-1H-isoindol-5-yl)oxy]ethyl}-1,2-dihydrospiro[indole-3,4′-piperidin]-2-one]
- EC50 [1, 2]: 121 nM
- AC50 (APOL1 G2): 279 nM

SMILES: CS(=O)(=O)C1(c2ccc(OCCN3CCC4(CC3)C(=O)Nc3ccc(C#N)cc34)cc2)CC1 [Compound 101, 1′-{2-[4-(1-methanesulfonylcyclopropyl)phenoxy]ethyl}-2-oxo-1,2-dihydrospiro[indole-3,4′-piperidine]-5-carbonitrile]
- EC50 [1, 2]: 49.6 nM
- AC50 (APOL1 G2): 634 nM

SMILES: O=C1NCC2c3ccc(OCCN4CCC5(CC4)C(=O)Nc4ccc(Cl)cc45)cc3CCN12 (single isomer, unassigned) [Compound 116, (S) or (R)-5-chloro-1′-[2-({3-oxo-1H,2H,3H,5H,6H,10bH-imidazo[4,3-a]isoquinolin-8-yl}oxy)ethyl]-1,2-dihydrospiro[indole-3,4′-piperidin]-2-one]
- EC50 [1, 2]: 81.8 nM
- AC50 (APOL1 G2): 466 nM

SMILES: CN=S(C)(=O)c1ccc(OCCN2CCC3(CC2)C(=O)Nc2ccc(Cl)cc23)cc1 (stereo not drawn) [Compound 147, 5-chloro-1′-(2-{4-[methyl(methylimino)oxo-λ^6-sulfanyl]phenoxy}ethyl)-1,2-dihydrospiro[indole-3,4′-piperidin]-2-one]
- EC50 [1, 2]: 63.1 nM
- AC50 (APOL1 G2): 492 nM

SMILES: CC1(S(=O)(=O)c2ccc(OCCN3CCC4(CC3)C(=O)Nc3ccc(Cl)cc34)cn2)COC1 [Compound 158, 5-chloro-1′-[2-({6-[(3-methyloxetan-3-yl)sulfonyl]pyridin-3-yl}oxy)ethyl]-1,2-dihydrospiro[indole-3,4′-piperidin]-2-one]
- EC50 [1, 2]: 65.7 nM
- AC50 (APOL1 G2): 845 nM

SMILES: CS(=O)(=O)C1(c2ccc(OCCN3CCC4(CC3)C(=O)N(CCO)c3ccc(Cl)cc34)cc2)COC1 [Compound 160, 5-chloro-1-(2-hydroxyethyl)-1′-{2-[4-(3-methanesulfonyloxetan-3-yl)phenoxy]ethyl}-1,2-dihydrospiro[indole-3,4′-piperidin]-2-one]
- EC50 [1, 2]: 75.4 nM
- AC50 (APOL1 G2): 898 nM

SMILES: CN=S(C)(=O)c1ccc(OCCN2CCC3(CC2)C(=O)Nc2ccc(Cl)cc23)cc1 (single isomer, unassigned) [Compound 149, (R) or (S)-5-chloro-1′-(2-{4-[methyl(methylimino)oxo-λ^6-sulfanyl]phenoxy}ethyl)-1,2-dihydrospiro[indole-3,4′-piperidin]-2-one]
- EC50 ([1]; HEK293 overexpressing APOL1 G2): 101 nM
- AC50 (APOL1 G2): 971 nM

SMILES: Cn1c(=O)oc2cc(OCCN3CCC4(CC3)C(=O)Nc3ccc(Cl)cc34)ccc21 [Compound 131, 5-chloro-1′-{2-[(3-methyl-2-oxo-2,3-dihydro-1,3-benzoxazol-6-yl)oxy]ethyl}-1,2-dihydrospiro[indole-3,4′-piperidin]-2-one]
- EC50 [1, 2]: 68 nM
- AC50 (APOL1 G2): 464 nM

SMILES: CN=S(C)(=O)c1ccc(OCCN2CCC3(CC2)C(=O)Nc2ccc(C#N)cc23)cc1 (single isomer, unassigned) [Compound 152, (R) or (S)-1′-(2-{4-[methyl(methylimino)oxo-λ^6-sulfanyl]phenoxy}ethyl)-2-oxo-1,2-dihydrospiro[indole-3,4′-piperidine]-5-carbonitrile]
- EC50 ([1]; HEK293 overexpressing APOL1 G2): 405 nM
- AC50 (APOL1 G2): 1820 nM
